According to patent publication US20130217672A1, “(+)-3-HYDROXYMORPHINAN-BASED POLYCYCLE DERIVATIVES” (GREEN CROSS CORPORATION, priority 2010, published 2013):
Where a name gives a salt, the structure may show the parent alone.

Tests used:
[1] = Cell cytotoxicity test: HT22 cells co-treated with 5 mM glutamate and compound, MTT readout; format: cell-based, mouse; conditions: mouse, HT22 cells (mouse hippocampal neuron)
Procedure: (§1) HT22 cells (mouse hippocampal neuron, Salk Institute and KRIBB) were placed in a 96-well plate 3×10^3 cells/well for 16 h before treatment. Five millimolar glutamate and the inventive compounds were co-treated and incubated for 24 h in growth media (DMEM with 10% FBS and 1% penicillin streptomycin). MTT (3-(4,5-dimethylthazol-2-yl)-2,5-diphenyltetrazolium bromide, Sigma®) was treated for 4 h and detected with a plate reader at a wavelength=450 nm [Da-Qing, et. al., Anti-oxidant and anti-inflammatory activities of macelignan in murine hippocampal cell line and primary culture of rat microglia cells, BBRC, 2005, 331, 1264-1269].
(§2) The EC50 values were statistically analyzed using Prism® (GraphPad Software Inc., San Diego, Calif.). The results of the cell cytotoxicity test are summarized in Table 1 (EC50: neuroprotective effect against glutamate toxicity, and CC50: cytotoxicity of compound).

[2] = tested on: HT22 cells (mouse hippocampal neuron); assay: as above; format: cell-based; conditions: Mus musculus, HT-22, five millimolar glutamate co-treated, 24 h, read-out: EC50: neuroprotective effect against glutamate toxicity
Procedure: as §1, §2

[3] = tested on: dopamine (DA) neurons in substantia nigra pars compacta; conditions: MPTP model, daily injections; cited from earlier work

| Structure (SMILES) | CC50 at 24 h [1] [µM] | EC50 [2] [µM] | DA levels in striatum [3] | DA neurons in substantia nigra pars compacta [3] |
| --- | --- | --- | --- | --- |
| Cc1ccc2[nH]c3c(O)cc4c(c3c2c1)C[C@@H]1NCC[C@]42CCCC[C@H]12 [Example 14, (4aS,13S,13aS)-10-Methyl-1,2,3,4,7,12,13,13a-octahydro-13,4a-(epiminoethano)naphtho[1,2-c]carbazol-6-ol TFA salt] | 5.7 | 0.908 | – | – |
| Oc1cc2c(c3nc4ccccc4nc13)C[C@@H]1NCC[C@]23CCCC[C@H]13 [Example 10, (4aS,14S,14aS)-2,3,4,13,14,14a-Hexahydro-1H-14,4a-(epiminoethano)naphtho[2,1-a]phenazin-6-ol TFA salt] | 10.7 | 0.354 | – | – |
| Oc1cc2c(c3c1NC(c1ccccc1)CO3)C[C@@H]1NCC[C@]23CCCC[C@H]13 (stereo partly drawn) [Example 8, (6S,6aS,10aS)-2-Phenyl-1,2,3,5,6,6a,7,8,9,10-decahydro-6,10a-(epiminoethano)phenanthro[1,2-b][1,4]oxazin-12-ol TFA salt] | 8.1 | 0.457 | – | – |
| Oc1cc2c(c3c1NCCO3)C[C@@H]1NCC[C@]23CCCC[C@H]13 [Example 7, (6S,6aS,10aS)-1,2,3,5,6,6a,7,8,9,10-Decahydro-6,10a-(epiminoethano)phenanthro[1,2-b][1,4]oxazin-12-ol TFA salt] | 13.5 | 0.65 | – | – |
| Oc1cc2c(c3nccnc13)C[C@@H]1NCC[C@]23CCCC[C@H]13 [Example 9, (6S,6aS,10aS)-6,6a,7,8,9,10-Hexahydro-5H-6,10a-(epiminoethano)naphtho[2,1-f]quinoxalin-12-ol TFA salt] | 44.8 | 16.3 | – | – |
| Oc1cccc2c1[nH]c1c(O)cc3c(c12)C[C@@H]1NCC[C@]32CCCC[C@H]12 [Example 11, (4aS,13S,13aS)-1,2,3,4,7,12,13,13a-Octahydro-13,4a-(epiminoethano)naphtho[1,2-c]carbazole-6,8-diol TFA salt] | 44 | 0.303 | – | – |
| Oc1cc2c(c3c1[nH]c1ccccc13)C[C@@H]1NCC[C@]23CCCC[C@H]13 [Example 12, (4aS,13S,13aS)-1,2,3,4,7,12,13,13a-Octahydro-13,4a-(epiminoethano)naphtho[1,2-c]carbazol-6-ol TFA salt] | 49.8 | 0.71 | – | – |
| Oc1cc2c(c3c1OCCN3)C[C@@H]1NCC[C@]23CCCC[C@H]13 [Example 1, (6S,6aS,10aS)-2,3,4,5,6,6a,7,8,9,10-Decahydro-6,10a-(epiminoethano)phenanthro[2,1-b][1,4]oxazin-12-ol TFA salt] | > 100 | 26.9 | – | – |
| CC(=O)N1CCOc2c(O)cc3c(c21)C[C@@H]1NCC[C@]32CCCC[C@H]12 [Example 3, 1-((6S,6aS,10aS)-12-Hydroxy-2,3,6,6a,7,8,9,10-octahydro-6,10a-(epiminoethano)phenanthro[2,1-b][1,4]oxazin-4(5H)-yl)ethanone TFA salt] | > 100 | 8.5 | – | – |
| CC1COc2c3c(cc(O)c2N1)[C@]12CCCC[C@@H]1[C@H](C3)NCC2 (stereo partly drawn) [Example 6, (6S,6aS,10aS)-2-Methyl-1,2,3,5,6,6a,7,8,9,10-decahydro-6,10a-(epiminoethano)phenanthro[1,2-b][1,4]oxazin-12-ol TFA salt] | > 100 | 0.314 | – | – |
| Oc1cc2c(c3c1OCCO3)C[C@@H]1NCC[C@]23CCCC[C@H]13 [Example 5, (6S,6aS,10aS)-3,5,6,6a,7,8,9,10-Octahydro-2H-6,10a-(epiminoethano)phenanthro[1,2-b][1,4]dioxin-12-ol TFA salt] | > 100 | 4.97 | – | – |
| Oc1cc2c(c3c1OCCCN3)C[C@@H]1NCC[C@]23CCCC[C@H]13 [Example 2, (7S,7aS,11aS)-3,4,5,6,7,7a,8,9,10,11-Decahydro-2H-7,11a-(epiminoethano)phenanthro[2,1-b][1,4]oxazepin-13-ol TFA salt] | > 100 | 27.7 | – | – |
| Oc1ccc2[nH]c3c(O)cc4c(c3c2c1)C[C@@H]1NCC[C@]42CCCC[C@H]12 [Example 13, (4aS,13S,13aS)-1,2,3,4,7,12,13,13a-Octahydro-13,4a-(epiminoethano)naphtho[1,2-c]carbazole-6,10-diol TFA salt] | > 100 | 1.11 | – | – |
| CN1CCOc2c(O)cc3c(c21)C[C@@H]1NCC[C@]32CCCC[C@H]12 [Example 4, (6S,6aS,10aS)-4-Methyl-2,3,4,5,6,6a,7,8,9,10-decahydro-6,10a-(epiminoethano)phenanthro[2,1-b][1,4]oxazin-12-ol TFA salt] | > 100 | 9.6 | – | – |
| Oc1ccc2c(c1)[C@@]13CCCC[C@H]1[C@@H](C2)NCC3 [(+)-3-HM, (+)-3-hydroxymorphinan] | – | – | restored | protected |
